{"source": "PubChem BioAssay (NCI)", "assay_in_all_cases": "DTP human tumour cell line panel, 48 h", "key": {"MOLT-4 leukemia": {"test_system": "MOLT-4 leukemia"}, "A498 renal": {"test_system": "A498 renal"}, "COLO 205 colon": {"test_system": "COLO 205 colon"}, "SF-295 CNS": {"test_system": "SF-295 CNS"}, "OVCAR-8 ovarian": {"test_system": "OVCAR-8 ovarian"}, "HCT-15 colon": {"test_system": "HCT-15 colon"}, "786-0 renal": {"test_system": "786-0 renal"}, "SNB-19 CNS": {"test_system": "SNB-19 CNS"}, "IGROV1 ovarian": {"test_system": "IGROV1 ovarian"}, "SW-620 colon": {"test_system": "SW-620 colon"}, "SK-OV-3 ovarian": {"test_system": "SK-OV-3 ovarian"}, "HOP-62 NSCLC": {"test_system": "HOP-62 NSCLC"}, "SF-268 CNS": {"test_system": "SF-268 CNS"}, "HOP-92 NSCLC": {"test_system": "HOP-92 NSCLC"}, "MDA-N": {"test_system": "MDA-N"}, "UO-31 renal": {"test_system": "UO-31 renal"}, "HL-60(TB) leukemia": {"test_system": "HL-60(TB) leukemia"}, "DU-145 prostate": {"test_system": "DU-145 prostate"}, "SF-539 CNS": {"test_system": "SF-539 CNS"}, "OVCAR-5 ovarian": {"test_system": "OVCAR-5 ovarian"}, "MDA-MB-435": {"test_system": "MDA-MB-435"}, "U251 CNS": {"test_system": "U251 CNS"}, "NCI-H226 lung": {"test_system": "NCI-H226 lung"}, "LOX IMVI melanoma": {"test_system": "LOX IMVI melanoma"}, "K-562 leukemia": {"test_system": "K-562 leukemia"}, "SK-MEL-2 melanoma": {"test_system": "SK-MEL-2 melanoma"}, "UACC-62 melanoma": {"test_system": "UACC-62 melanoma"}, "UACC-257 melanoma": {"test_system": "UACC-257 melanoma"}, "OVCAR-3 ovarian": {"test_system": "OVCAR-3 ovarian"}, "SNB-75 CNS": {"test_system": "SNB-75 CNS"}, "HCT-116 colon": {"test_system": "HCT-116 colon"}, "NCI-H522 lung": {"test_system": "NCI-H522 lung"}, "SK-MEL-5 melanoma": {"test_system": "SK-MEL-5 melanoma"}, "CAKI-1 renal": {"test_system": "CAKI-1 renal"}, "MALME-3M melanoma": {"test_system": "MALME-3M melanoma"}, "NCI-H460 lung": {"test_system": "NCI-H460 lung"}, "KM12 colon": {"test_system": "KM12 colon"}, "MDA-MB-231 breast": {"test_system": "MDA-MB-231 breast"}, "CCRF-CEM leukemia": {"test_system": "CCRF-CEM leukemia"}, "TK-10 renal": {"test_system": "TK-10 renal"}, "ACHN renal": {"test_system": "ACHN renal"}, "NCI-H23 lung": {"test_system": "NCI-H23 lung"}, "SN12C renal": {"test_system": "SN12C renal"}, "SR leukemia": {"test_system": "SR leukemia"}, "HT29 colon": {"test_system": "HT29 colon"}, "RXF 393 renal": {"test_system": "RXF 393 renal"}, "MCF7 breast": {"test_system": "MCF7 breast"}, "NCI/ADR-RES ovarian": {"test_system": "NCI/ADR-RES ovarian"}, "PC-3 prostate": {"test_system": "PC-3 prostate"}, "HCC-2998 colon": {"test_system": "HCC-2998 colon"}, "EKVX NSCLC": {"test_system": "EKVX NSCLC"}, "SK-MEL-28 melanoma": {"test_system": "SK-MEL-28 melanoma"}, "OVCAR-4 ovarian": {"test_system": "OVCAR-4 ovarian"}, "HS 578T breast": {"test_system": "HS 578T breast"}, "T-47D breast": {"test_system": "T-47D breast"}, "A549 NSCLC": {"test_system": "A549 NSCLC"}, "RPMI-8226 leukemia": {"test_system": "RPMI-8226 leukemia"}}, "note": "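Cells were grown in 96-well plates and exposed to each compound for 48 hours at five concentrations; endpoints were interpolated linearly between bracketing concentrations, or set to the highest concentration if not reached. TGI marks complete inhibition of growth.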"}
{"smiles": "COc1ccc2cc(CN3CCC(C4CCN(Cc5ccc6cc(OC)ccc6c5)CC4)CC3)ccc2c1", "values": [{"measurement": "TGI", "setting": "MOLT-4 leukemia", "result": 5.11, "unit": "µM"}, {"measurement": "TGI", "setting": "A498 renal", "result": 22.2, "unit": "µM"}, {"measurement": "TGI", "setting": "COLO 205 colon", "result": 2.98, "unit": "µM"}, {"measurement": "TGI", "setting": "SF-295 CNS", "result": 7.57, "unit": "µM"}, {"measurement": "TGI", "setting": "OVCAR-8 ovarian", "result": 19.4, "unit": "µM"}, {"measurement": "TGI", "setting": "HCT-15 colon", "result": 3.04, "unit": "µM"}, {"measurement": "TGI", "setting": "786-0 renal", "result": 4.23, "unit": "µM"}, {"measurement": "TGI", "setting": "SNB-19 CNS", "result": 16.6, "unit": "µM"}, {"measurement": "TGI", "setting": "IGROV1 ovarian", "result": 21.6, "unit": "µM"}, {"measurement": "TGI", "setting": "SW-620 colon", "result": 7.98, "unit": "µM"}, {"measurement": "TGI", "setting": "SK-OV-3 ovarian", "result": "> 72.8", "unit": "µM"}, {"measurement": "TGI", "setting": "HOP-62 NSCLC", "result": 22.7, "unit": "µM"}, {"measurement": "TGI", "setting": "SF-268 CNS", "result": 10.8, "unit": "µM"}, {"measurement": "TGI", "setting": "HOP-92 NSCLC", "result": 8.91, "unit": "µM"}, {"measurement": "TGI", "setting": "MDA-N", "result": 4.06, "unit": "µM"}, {"measurement": "TGI", "setting": "UO-31 renal", "result": 9.78, "unit": "µM"}, {"measurement": "TGI", "setting": "HL-60(TB) leukemia", "result": 4.31, "unit": "µM"}, {"measurement": "TGI", "setting": "DU-145 prostate", "result": 41.6, "unit": "µM"}, {"measurement": "TGI", "setting": "SF-539 CNS", "result": "> 100", "unit": "µM"}, {"measurement": "TGI", "setting": "OVCAR-5 ovarian", "result": "> 76.7", "unit": "µM"}, {"measurement": "TGI", "setting": "MDA-MB-435", "result": 3.58, "unit": "µM"}, {"measurement": "TGI", "setting": "U251 CNS", "result": 8.41, "unit": "µM"}, {"measurement": "TGI", "setting": "NCI-H226 lung", "result": 38.3, "unit": "µM"}, {"measurement": "TGI", "setting": "LOX IMVI melanoma", "result": 5.66, "unit": "µM"}, {"measurement": "TGI", "setting": "K-562 leukemia", "result": 2.12, "unit": "µM"}, {"measurement": "TGI", "setting": "SK-MEL-2 melanoma", "result": 12.7, "unit": "µM"}, {"measurement": "TGI", "setting": "UACC-62 melanoma", "result": 3.74, "unit": "µM"}, {"measurement": "TGI", "setting": "UACC-257 melanoma", "result": 3.88, "unit": "µM"}, {"measurement": "TGI", "setting": "OVCAR-3 ovarian", "result": 9.74, "unit": "µM"}, {"measurement": "TGI", "setting": "SNB-75 CNS", "result": 11, "unit": "µM"}, {"measurement": "TGI", "setting": "HCT-116 colon", "result": 10.6, "unit": "µM"}, {"measurement": "TGI", "setting": "NCI-H522 lung", "result": 6.56, "unit": "µM"}, {"measurement": "TGI", "setting": "SK-MEL-5 melanoma", "result": 3.12, "unit": "µM"}, {"measurement": "TGI", "setting": "CAKI-1 renal", "result": 8.42, "unit": "µM"}, {"measurement": "TGI", "setting": "MALME-3M melanoma", "result": 4.51, "unit": "µM"}, {"measurement": "TGI", "setting": "NCI-H460 lung", "result": 5.04, "unit": "µM"}, {"measurement": "TGI", "setting": "KM12 colon", "result": 6.31, "unit": "µM"}, {"measurement": "TGI", "setting": "MDA-MB-231 breast", "result": 9.97, "unit": "µM"}, {"measurement": "TGI", "setting": "CCRF-CEM leukemia", "result": 4.33, "unit": "µM"}, {"measurement": "TGI", "setting": "TK-10 renal", "result": 6.18, "unit": "µM"}, {"measurement": "TGI", "setting": "ACHN renal", "result": 21.7, "unit": "µM"}, {"measurement": "TGI", "setting": "NCI-H23 lung", "result": 35.9, "unit": "µM"}, {"measurement": "TGI", "setting": "SN12C renal", "result": 24, "unit": "µM"}, {"measurement": "TGI", "setting": "SR leukemia", "result": 3.6, "unit": "µM"}, {"measurement": "TGI", "setting": "HT29 colon", "result": 6.64, "unit": "µM"}, {"measurement": "TGI", "setting": "RXF 393 renal", "result": 11.8, "unit": "µM"}, {"measurement": "TGI", "setting": "MCF7 breast", "result": "> 100", "unit": "µM"}, {"measurement": "TGI", "setting": "NCI/ADR-RES ovarian", "result": 25.9, "unit": "µM"}, {"measurement": "TGI", "setting": "PC-3 prostate", "result": 48.7, "unit": "µM"}, {"measurement": "TGI", "setting": "HCC-2998 colon", "result": 0.367, "unit": "µM"}, {"measurement": "TGI", "setting": "EKVX NSCLC", "result": 29.8, "unit": "µM"}, {"measurement": "TGI", "setting": "SK-MEL-28 melanoma", "result": 4.75, "unit": "µM"}, {"measurement": "TGI", "setting": "OVCAR-4 ovarian", "result": 18.2, "unit": "µM"}, {"measurement": "TGI", "setting": "HS 578T breast", "result": 11.8, "unit": "µM"}, {"measurement": "TGI", "setting": "T-47D breast", "result": 4.45, "unit": "µM"}, {"measurement": "TGI", "setting": "A549 NSCLC", "result": "> 100", "unit": "µM"}, {"measurement": "TGI", "setting": "RPMI-8226 leukemia", "result": 4.19, "unit": "µM"}]}
